# Reference: ChEMBL document CHEMBL1201862, “PubChem BioAssay data set” (2004)
#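 Assay format: 96-well plates, 48-hour exposure. GI50 = concentration required for 50% inhibition of growth.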 Activity calls are given as the source filed them. Rule as the data show it: active = GI50 up to about 1.1 µM and inactive = higher.
# Tests used:
# Test in all cases: NCI-60 cell line screen, 48 h
# [1] = test system: 786-0
# [2] = test system: CAKI-1
# [3] = test system: COLO 205
# [4] = test system: HCC 2998
# [5] = test system: HCT-116
# [6] = test system: HT-29
# [7] = test system: LOX IMVI
# [8] = test system: Malme-3M
# [9] = test system: NCI-H460
# [10] = test system: OVCAR-3
# [11] = test system: SF-268
# [12] = test system: SF-295
# [13] = test system: SK-MEL-28
# [14] = test system: SK-MEL-2
# [15] = test system: SK-OV-3
# [16] = test system: SR
# [17] = test system: UACC-257
# [18] = test system: NCI/ADR-RES
SMILES,GI50 [1],GI50 [2],GI50 [3],GI50 [4],GI50 [5],GI50 [6],GI50 [7],GI50 [8],GI50 [9],GI50 [10],GI50 [11],GI50 [12],GI50 [13],GI50 [14],GI50 [15],GI50 [16],GI50 [17],GI50 [18]
Cc1ccccc1NC(=O)c1c(C)oc2c1C(=O)c1ccccc1C2=O,27 µM (inactive),> 80.7 µM (inactive),53.3 µM (inactive),51.5 µM (inactive),32.1 µM (inactive),35.9 µM (inactive),16 µM (inactive),10.2 µM (inactive),32.4 µM (inactive),14.4 µM (inactive),31.8 µM (inactive),40.3 µM (inactive),27.5 µM (inactive),30.5 µM (inactive),> 100 µM (inactive),26.1 µM (inactive),21.4 µM (inactive),–
CC(=O)OC1COC(N2C(=O)/C(=N\NC(N)=S)c3cc(Br)ccc32)C(OC(C)=O)C1OC(C)=O (stereo not given),> 100 µM (inactive),> 100 µM (inactive),38.1 µM (inactive),> 100 µM (inactive),27.2 µM (inactive),> 100 µM (inactive),38.9 µM (inactive),32.7 µM (inactive),23.8 µM (inactive),51.5 µM (inactive),38.5 µM (inactive),45.3 µM (inactive),25.4 µM (inactive),> 100 µM (inactive),> 100 µM (inactive),19.5 µM (inactive),> 100 µM (inactive),–
N=C(N)SCc1cccc([N+](=O)[O-])c1,–,24.4 µM (inactive),21.5 µM (inactive),34.1 µM (inactive),26.5 µM (inactive),30.1 µM (inactive),31.9 µM (inactive),34.2 µM (inactive),34.1 µM (inactive),18.6 µM (inactive),33 µM (inactive),38.9 µM (inactive),31.8 µM (inactive),24 µM (inactive),> 57.1 µM (inactive),–,27.2 µM (inactive),21.2 µM (inactive)
CC(=O)Oc1cc2c(cc1OC(C)=O)OCC(c1ccc(C)cc1)C2 (stereo not given),–,21.7 µM (inactive),20.5 µM (inactive),12.6 µM (inactive),20.7 µM (inactive),29.2 µM (inactive),18.7 µM (inactive),19 µM (inactive),15.1 µM (inactive),21.6 µM (inactive),10.5 µM (inactive),28.7 µM (inactive),20 µM (inactive),20 µM (inactive),53.7 µM (inactive),–,21.4 µM (inactive),25.5 µM (inactive)
O=C1C=C(Nc2ccc(S(=O)(=O)Nc3ncccn3)cc2)c2ccccc2C1=O,19.8 µM (inactive),32.1 µM (inactive),22.5 µM (inactive),18 µM (inactive),18.9 µM (inactive),22.6 µM (inactive),15.8 µM (inactive),23.9 µM (inactive),20.7 µM (inactive),14.6 µM (inactive),28.5 µM (inactive),20.6 µM (inactive),26 µM (inactive),18.4 µM (inactive),26.7 µM (inactive),8.53 µM (inactive),20.1 µM (inactive),–
c1cc2c3c(c1)c1cc4c(cc1c[n+]3CC2)OCO4 [ANHYDROLYCORINIUM CHLORIDE],–,12.5 µM (inactive),2.74 µM (inactive),2.75 µM (inactive),2.81 µM (inactive),7.4 µM (inactive),25.5 µM (inactive),0.871 µM (active),3.73 µM (inactive),3.4 µM (inactive),0.618 µM (active),0.802 µM (active),4.82 µM (inactive),4.26 µM (inactive),10.2 µM (inactive),–,5.28 µM (inactive),> 225 µM (inactive)
CCCCCCCCCCCCCCCCCCOCC(O)CO (stereo not given) [BATILOL],–,3.57 µM (inactive),> 25 µM (inactive),12.4 µM (inactive),> 25 µM (inactive),14.5 µM (inactive),> 21.9 µM (inactive),> 11.1 µM (inactive),> 20.2 µM (inactive),> 23.9 µM (inactive),> 25 µM (inactive),18.6 µM (inactive),> 25 µM (inactive),> 24.2 µM (inactive),> 23.5 µM (inactive),–,> 23.9 µM (inactive),> 25 µM (inactive)
